Experimental findings from patent publication US20070184098A1, “Esters of flavonoids with w-substituted c6-c22 fatty acids” (priority 2003, published 2007) are described below.

For one data set, the system named is Human fibroblasts. Description: UVA cytophotoprotection, anti-oxidative effect (MDA released, cell proteins, GSH) on UVA-irradiated human fibroblasts. In kind it is cell-based. The conditions noted are these: UVA 20 J/cm2; for Cell GSH/protein ratio: irradiated control = 78, not irradiated = 100; for MDA released: irradiated control = 100, not irradiated = 0; for Cell proteins: irradiated control = 107, not irradiated = 100. Here is the method: The cytoprotection against UVA irradiation has been evaluated by a test on human fibroblasts because UVA radiation penetrates through the epidermis until the dermis where it induces oxidative stress, mainly by activation of photosensitising biological components, which catalyse the formation of ROS like anion superoxide, hydrogen peroxide and singlet oxygen, and lipoperoxydation of the cell membrane. These oxidative stress effects are evaluated in vitro due to measuring of the level of released MDA (malondialdehyde) and of intracellular GSH (reduced glutathion) (Morliere P., Moisan A., Santus R., Huppe G., Mazière J. C., Dubertret L.: UV-A induced lipid peroxydation in cultured human fibroblasts Biochim. Biophys. Acta (1991) 1084, 3:261-269).
The lipoperoxides formed after UVA irradiation undergo a decay into malondialdehyde which can form cross-links between many biological molecules like proteins with inhibition of enzymes and nucleic bases with risk of mutagenesis. Glutathione (GSH) is a peptide produced by the cells to protect them from oxidative stress or certain pollutants like mercury or lead. An increase in the GSH level enhances the activity of glutathion-S-transferase, a detoxification enzyme. GSH is evaluated according to the method of Hissin (Hissin P. J., Hilf R. A fluorometric method for determination of oxydised and reduced Glutathione in tissues. Analytical Biochemistry (1977) vol 74, pp 214-226).
Human fibroblasts were inoculated with growth medium (DMEM+FCS) and incubated 3 days at 37° C., with 5% CO2. The growth medium was then exchanged with medium containing an ingredient to be tested and incubated 2 days at 37° C. with CO2=5%. After an exchange of medium with balanced salt solution, the cell culture was irradiated by UVA 20 J/cm^2. Cell proteins and GSH were measured, and MDA released in the supernatant was determined spectrophotometrically.

For the next data set, the system named is Human keratinocytes. Description: UVB cytophotoprotection and anti-inflammatory effect (DNA, LDH and PGE2 released) on UVB-irradiated human keratinocytes. In kind it is cell-based. The conditions noted are these: UVB 50 mJ/cm2; for Keratinocytes DNA: irradiated control = 23, not irradiated = 100; for LDH released / PGE2 released: irradiated control = 100, not irradiated = 0. The text has this: The arachidonic cascade is an important mechanism of cutaneous inflammation. This cascade may be induced by several factors, particularly by UVB irradiation. UVB induces the inflammatory response by activation of phospholipase A2 (PLA2), which results in a release of arachidonic acid from cell membranes. Then other specific enzymes (so called cyclo-oxygenases) transform arachidonic acid in active components called prostaglandin (PG) which are secreted from the cells. The fixation of certain prostaglandins (PGE2) on specific skin receptors is followed by redness and swelling on human skin. On cultured human cells, these UVB effects on cell's membrane are associated with a release of a cytoplasmic enzyme into the supernatant medium: Lactate Dehydrogenase or LDH.
Human keratinocytes were inoculated with growth medium (DMEM+FCS) and incubated 3 days at 37° C. and 5% CO2. The growth medium was then exchanged with balanced salt solution containing the ingredient to be tested, the cell culture was irradiated by UVB 50 mJ/cm^2 (DUKE GL40E lamp). After 1 day of incubation at 37° C. with 5% CO2, LDH and PGE2 released in the medium were determined, and cellular DNA was measured using a fluorescent probe to determine the cell viability.

The nature of data set [1]: Solubility in hydrophilic and lipophilic solvent by HPLC. In kind it is physicochemical. Particulars: stirring 1 hour at room temperature. Here is the method: The solubility was determined by HPLC measurement after stirring during 1 hour at room temperature.
A further data set concerns the target Lipoxygenase. Put plainly: Anti-free radical activity: superoxide anions released by lipoxygenase, Luminol probe. Particulars: mean of 2 assays; lipoxygenase with unsaturated fatty acid substrate. In kind it is biochemical. Here is the method:
The anti-free radical (anti-FR) activity has been evaluated by biochemical tests to address the potential for scavenging superoxide anion (O2°).
Lipoxygenase was incubated with a specific substrate (unsaturated fatty acid) and the flavonoid esters. Then the rate of released superoxide anions was determined using Luminol luminescent probe to calculate the IC50 (mean of 2 assays).

Values joined by “and” are separate entries in the source; they are usually repeats but may differ in a detail not shown here. Equal entries are not always repeated.

In the case of `CC1OC(OCC2OC(Oc3c(-c4ccc(O)c(O)c4)oc4cc(O)cc(O)c4c3=O)C(O)C(O)C2O)C(O)C(O)C1OC(=O)CCCCCCCCCCCCCCC(=O)O` (stereo not shown) [Rutin hexadecandioate, rutin hexadecandioate], in the data set with Human fibroblasts (dose 0.003 % w/v), the “Cell GSH/protein ratio” value was 101 % against control, the MDA released was determined as 46 % against control and the Cell proteins is 129 % against control. In the data set on Human fibroblasts (dose 0.01 % w/v), the “Cell GSH/protein ratio” value came out at 75 % against control, the MDA released worked out at 21 % against control and the Cell proteins is given as 178 % against control. Moreover, in the data set with Human keratinocytes (dose 0.003 % w/v), the “Keratinocytes DNA” value came to 24 % against control, the LDH released was found to be 53 % against control and the PGE2 released stood at 2 % against control. In the data set on Human keratinocytes (dose 0.01 % w/v), the “Keratinocytes DNA” value turned out to be 39 % against control, the LDH released is reported as 19 % against control and the PGE2 released is recorded as 0 % against control. Besides, in data set [1], the “Solubility in butylene glycol” value is 39.4 g/L and 44.7 mM; the Solubility in octyl-dodecanol is 0.13 g/L and 0.15 mM; the Solubility in water was 0.38 g/L and 0.43 mM. On Lipoxygenase, the “IC50 (w/v), released superoxide anions” value amounted to 0.0036 w/v.
